This assay relates to bovine retinal homogenate. As to the kind of experiment: Ferrous chloride-induced peroxidation of bovine retinal homogenate in vitro, TBA value (Experiment 1 (A)). It is filed as biochemical. The conditions noted are these: 10^-4 M. The method, then: (A) In vitro experiment using a bovine retinal homogenate:
Effects of 2-O-octadecylascorbic acid on the peroxidation induced by adding ferrous chloride to a bovine retinal homogenate were examined.
(1) Retinae were removed from bovine eyeballs (1/2 eye). Physiological saline was added to the retinae to prepare bovine retinal homogenates.
(2) Ferrous chloride (0.5 mM, dissolved in distilled water) was added to each of the retinal homogenates obtained in the above. Further, 2-O-octadecylascorbic acid and α-tocopherol were added to the resulting homogenates to final concentrations of the reaction mixtures of 10^-4 M, respectively. Further, distilled water was added to each of the homogenates to adjust a total volume to 1 ml. 2-O-octadecylascorbic acid and α-tocopherol were dissolved and diluted with ethanol. Thus, the final concentrations of ethanol in all of the reaction mixtures were adjusted to 1%. Then, the mixtures were subjected to reaction at 37° C. for 1 hour.
(3) 0.35% thiobarbituric acid (hereinafter referred to as TBA) reagent (50% aqueous acetic acid solution)(1 ml) was added to the reaction mixtures or standard solutions of the retinal homogenates obtained in the above (2). The mixtures were subjected to reaction in boiling water at 100° C. for 1 hour. After water cooling, n-butanol (2 ml) was added, and the mixtures were shaken for 5 minutes and centrifuged at 3000 rpm for 10 minutes. Fluorescence intensities (excitation wave length: 515 nm, emission wave length: 553 nm) were determined for the n-butanol layer. Proteins were determined using Bio-Rad Protein Assay Kit (trade name).

With `Cc1c(C)c2c(c(C)c1O)CCC(C)(CCCC(C)CCCC(C)CCCC(C)C)O2` (stereo not drawn) [α-Tocopherol, α-tocopherol, reference compound], the “Retina: TBA value” (0.5 mM ferrous chloride, 37° C., 1 hour, mean ± S.D., n=3, p < 0.001 vs control) is on record as 2.38 ± 0.12 nM malondialdehyde/mg protein. Besides, under “ferrous chloride control = 0, blank = 100, 60 min”, the Inhibitory ratio is recorded as 61.6%.

Values taken from patent US5665769A, “Pharmaceutical composition for preventing and treating retinal diseases” (Senju Pharmaceuticals Co., Ltd., priority 1993, dated 1997).
